Measurements from patent publication US7351294B2, “Surface cleaner” (Reckitt Benckiser (UK) Limited, priority 1999, dated 2008).

How the values were obtained:
[1] = cited from earlier work
[2] = Activity test: decolourisation of target dye gentian violet by sensitised TiO2 sol on an overhead projector, followed by UV/Visible spectrum
Protocol: A mixture of TiO2 sol (1 ml, 1 g/L) and tris(2,2′-dipyridyl4,4′-dicarboxylate)ruthenium(II)(dichloride) (4 ml, c=3.4×10^−5M) was stirred for about 1 minute using a rotamixer. The pH was recorded then the target dye gentian violet (GV dissolved in 20% ethanol solution, 0.05 ml or 0.08 ml, 0.03 wt/v %) was added and the mixture was stirred again. The initial colour of the sensitised TiO2 sol was yellow. Addition of gentian violet produced a purple colour at pH 3 and higher. A UV/Visible spectrum was taken at this stage. The vial containing the mixture was placed onto an overhead projector (2 cm height from the glass, in order to reduce heat). A UV/Visible spectrum was used to observe the colour change over a period of time at lamda max of the Target dye (Gentian violet or crystal violet)=588 nm in the white light spectrum. (OHP used: Model Ensign. Lamp:24V-250 W-3860 lux)
In order to get quantitative data a UV/Visible spectrum was taken at different times. […]

[3] = acid conditions (pH 3); cited from earlier work

Row | Compound | Sensitising properties ([1]; pH 7 compared with lower pH) | Sensitising agent for charge injection into titania ([1]; acid pH, compared to tris(2,2′-bipridyl)ruthenium (II) dichloride) | Decolourisation on repeated addition of gentian violet (0.08 ml) ([2]; Example 19, with TiO2 sol (5 ml, 10 g/L), slower rate than on the first addition) | Activity with other light sources versus overhead projector ([2]; with TiO2 sol, daylight bulbs 40 W and 100 W, tungsten filament 35 W and 100 W, fluorescent tube 8 W) | Activity in sensitised photocatalytic oxidation of herbicides [3]
1 | [Cl-].[Cl-].[Ru+2].c1ccc(-c2ccccn2)nc1.c1ccc(-c2ccccn2)nc1.c1ccc(-c2ccccn2)nc1 [tris(2,2′-bipridyl)ruthenium (II) dichloride, reference compound] | improve |  |  |  | 
2 | tris(2,2′-bipyridyl-4,4′-dicarboxylate)ruthenium (II) dichloride |  | superior | still decolourising on the third addition | still works with all light sources tried albeit much slower | active
